For eight compounds, IC50 results are on record in ChEMBL document CHEMBL1133366, “Synthesis and structure-activity relationships of 3-cyano-4-(phenoxyanilino)quinolines as MEK (MAPKK) inhibitors” (Bioorg Med Chem Lett, 2000).

Experiment [1] concerns the target T1, Serine/threonine-protein kinase RAF and Dual specificity mitogen-activated protein kinase kinase 1 (Raf/MEK) (Homo sapiens, UniProt P04049+Q02750). The experiment can be described thus: Inhibition of ERK-phosphorylation by Raf-MEK-ERK in coupled ELISA. The class given is protein assay.
For experiment [2], the target named is Dual specificity mitogen-activated protein kinase kinase 1 (Homo sapiens, UniProt Q02750). Kind of experiment: Inhibition of ERK-phosphorylation by MEK-ERK in direct ELISA. For orientation: ELISA stands for enzyme-linked immunosorbent assay.
The next experiment deals with COLO 205. Kind of experiment: cells. To be noted: Homo sapiens.
The next experiment deals with SW-620. The experiment can be described thus: Inhibition of SW620 human colon tumor cell proliferation.
A further experiment concerns LoVo. Kind of experiment: Inhibition of LoVo human colon tumor cell proliferation.
Experiment [3] addresses T1, Serine/threonine-protein kinase RAF and Dual specificity mitogen-activated protein kinase kinase 1 (Raf/MEK). The experiment can be described thus: Inhibition of ERK phosphorylation in coupled Raf-MEK-ERK ELISA (Weakly active). It counts as protein assay.

In general, IC50 refers to the concentration at which inhibition is half-maximal.

Chain of Dual specificity mitogen-activated protein kinase kinase 1 (Q02750 whole entry): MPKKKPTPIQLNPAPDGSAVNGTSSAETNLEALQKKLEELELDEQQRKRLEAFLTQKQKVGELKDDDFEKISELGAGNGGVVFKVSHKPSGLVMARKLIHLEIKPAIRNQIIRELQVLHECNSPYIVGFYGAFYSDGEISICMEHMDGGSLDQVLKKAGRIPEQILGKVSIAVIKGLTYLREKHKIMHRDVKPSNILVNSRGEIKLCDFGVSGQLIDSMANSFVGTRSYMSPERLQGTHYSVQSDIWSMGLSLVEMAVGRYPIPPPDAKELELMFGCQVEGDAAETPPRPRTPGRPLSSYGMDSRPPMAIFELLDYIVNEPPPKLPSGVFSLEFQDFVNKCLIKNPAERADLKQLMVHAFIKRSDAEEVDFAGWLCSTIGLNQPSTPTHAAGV
Description for COLO 205: Inhibition of COLO 205 human colon tumor cell proliferation

As to `COc1cc2ncc(C#N)c(Nc3ccccc3Oc3ccccc3)c2cc1OC`, the IC50 in experiment [1] and in experiment [2] was over 10000 nM throughout.
As for `COc1cc2ncc(C#N)c(Nc3ccc(Oc4ccccc4)cc3)c2cc1OC`, the IC50 was determined as 1430 nM with COLO 205, 1500 nM with SW-620 and 630 nM in the experiment with LoVo.
For `COc1cc2c(Nc3ccc(Oc4ccccc4)cc3)c(C#N)cnc2cc1OCCCN1CCOCC1`, the half-maximal inhibitory concentration (IC50) in the experiment with COLO 205 was 360 nM; in the experiment with SW-620, 380 nM; in experiment [1], 2.4 nM; in experiment [2], 7 nM; with LoVo, 190 nM.
Turning to `COc1cc2c(Nc3ccc(Oc4ccccc4)cc3)c(C#N)cnc2c(OC)c1OC`, the IC50 in experiment [1] and in experiment [2] was over 10000 nM in each case.
With `COc1ccc(OC)c2c(Nc3ccc(Oc4ccccc4)cc3)c(C#N)cnc12`, the IC50 in experiment [1] and in experiment [2] was over 10000 nM in each case.
On to `COc1cccc2c(Nc3ccc(Oc4ccccc4)cc3)c(C#N)cnc12`, for which the IC50 in experiment [1] and in experiment [2] was over 10000 nM throughout.
Take `COc1cc2c(Nc3ccc(Oc4ccccc4)cc3)c(C#N)cnc2cc1OCCN1CCOCC1`: the IC50 with COLO 205 amounted to 630 nM; in the experiment with SW-620, 700 nM; in the experiment with LoVo it was 250 nM.
With `COc1cc2ncnc(Nc3ccc(Oc4ccccc4)cc3)c2cc1OC`, the IC50 in experiment [3] is over 100000 nM.
